From US7183108B1, “Selection and uses of lactic acid bacteria strains modulating non-specific immunity” (Compagnie Gervais Danone, priority 1998, dated 2007)

Key:
Format in all cases: cell-based, human
Caco-2 cells [1] = test: Production of TNF-α and IL-1β by Caco-2 cells (ELISA of culture supernatants); conditions: Caco-2 preactivated with CYTOMIX, with total extract of L. casei; L-NAME 1 mM or PDTC 10 pM (FIG. 3)
Description: (§1) Each of the 2 lines was seeded at 2×10^6 cells/well in 24-well plates, in DMEM medium supplemented with 5% of SVF, with 100 U/ml of penicillin, with 100 μg/ml of streptomycin and with 2 mM of L-glutamine. The cells are then incubated for 24 hours in the presence of CYTOMIX, and then for a further 24 hours in the presence of the total extracts of L. casei. For certain experiments, L-NAME (1 mM) or an inhibitor of the NFκB transduction pathway (PDTC: 10 pM) are added at the same time as the bacterial extracts. The culture supernatants are then recovered and the cytokine concentration thereof is determined by ELISA.

HT-29 cells [2] = test: Production of TNF-α and IL-1β by HT-29 cells (ELISA of culture supernatants); conditions: HT-29 preactivated with CYTOMIX, with total extract of L. casei; L-NAME 1 mM or PDTC 10 pM (FIG. 3)
Description: as §1

HT-29 cells [3] = test: Production of nitric oxide (nitrite, GRIESS method) by HT-29 colon epithelial cell line; conditions: HT-29, L-NAME 1 mM, in the presence or absence of total extract of L. casei (3% v/v) (FIG. 2)
Description: (§2) Each of the 2 lines was seeded at 2×10^5 cells/well in 96-well plates, in DMEM medium supplemented with 5% of SVF, with 100 U/ml of penicillin, with 100 μg/ml of streptomycin and with 2 mM of L-glutamine.
(§3) The cells are pre-incubated for 24 hours at 37° C., 5% CO2, in the presence of CYTOMIX (IL-1β: 10 ng/ml, TNF-α: 25 ng/ml and γ-IFN: 10^3 U/ml mixture). The cells are then incubated for a further 24 hours in the presence or absence of increasing amounts of total extracts of L. casei (in % vol/vol).
(§4) After incubation, the culture supernatants are recovered and frozen, before determining the nitrite concentration. For certain experiments, L-NAME (1 mM), which is an analogue of L-arginine and constitutes a competitive inhibitor specific for NO-synthases, is added at the same time as the extracts of L. casei.
(§5) The amount of NO produced is evaluated by assaying, in the culture supernatants, the stable derivatives of this radical after reaction thereof in aqueous medium: the nitrites and nitrates. The nitrates are, initially, reduced to nitrites with bacteria expressing nitrate reductase, and the nitrites are then assayed using the GRIESS method. […] The absorbances are then determined at 540 nm using a MULTISCAN MCC340 reader (LABSYSTEM).

Caco-2 cells [4] = test: Production of nitric oxide (nitrite, GRIESS method) by Caco-2 colon epithelial cell line; conditions: Caco-2, L-NAME 1 mM, in the presence or absence of total extract of L. casei (3% v/v) (FIG. 2)
Description: as §2, §3, §4, §5

S=C(S)N1CCCC1 [PDTC]
inhibited: effect of inhibitor on production of TNF-α (Caco-2 cells [1]) | effect of inhibitor on production of TNF-α (HT-29 cells [2])

COC(=O)[C@@H](N)CCCNC(=N)N[N+](=O)[O-] [L-NAME]
inhibited: effect on CYTOMIX-induced production of NO (HT-29 cells [3]) | effect of inhibitor on production of TNF-α (Caco-2 cells [1]) | effect on CYTOMIX-induced production of NO (Caco-2 cells [4]) | effect of inhibitor on production of TNF-α (HT-29 cells [2])
